Measurements from article PMC12257073 (Cancer Research Communications, 2025).
Read-outs that look alike come from different tables or passages of the source.

Legend:
[1] = Plasma pharmacokinetics of TP-0903 and metabolites (LC-MS/MS, noncompartmental analysis); format: in vivo, human; details: for Pre-treatment trough / Cmax / Tmax / AUC(0-t) / concentration at 24 h: median (range); for Cmax / Tmax / AUC(0-t) / concentration at 24 h: human, plasma, oral; for AUC(0-t): read-out: AUC0-24h; for concentration at 24 h: read-out: C24h trough
Experimental: On days 1 and 10 of cycle 1, plasma samples were collected for PK analysis from a total of 25 patients. In the phase 1b study portion of the study, plasma was collected before administration of TP-0903 on day 10 and at 0.5, 1, 2, 4, 8, and 24 hours after administration of TP-0903 on days 1 and 10. In the phase 2 portion of the study, plasma was collected at 2, 4, and 24 hours after drug administration. A validated ultrahigh-performance LC-MS/MS method was developed and used to quantify TP-0903 and its four major metabolites (M2, M3, M4, and M6) in plasma.
TP-0903 and its metabolites M2, M3, M4, and M6 were quantified in plasma using solid phase extraction and LC-MS/MS in the Ohio State University Comprehensive Cancer Center Pharmacoanalytical Shared Resource. See Supplementary Methods for details.
Sample preparation comprised 200 µL of K2EDTA plasma sample combined with 5 µL of 150 ng/mL internal standard mixture (TP-0903-d8 (NSN23293), M2-d8 (NSN23290), M3-d8 (NSN23292), M4-d8 (NSN23291), and M6-d8 (NSN23296)), 50 µL deionized (DI) water, and 50 µL of methanol in the wells of a 2-mL 96-well plate. Reference standards for TP-0903 (ditartrate salt), metabolites, and internal standards were obtained from Sumitomo Pharma America, Inc. (formerly Sumitomo Pharma Oncology, Inc.). Sample preparation was followed by shaking at 500 rpm for 5 minutes at room temperature and the addition of 1 mL of 0.1M sodium carbonate (791768-500G). After centrifugation at 3095 rcf for 10 minutes, 1 mL of supernatant was loaded onto a conditioned 30 mg HLB SPE plate (conditioning included 1 mL methanol flow through followed by 1 mL water flow through). After samples were loaded and passed through the SPE plate using a vacuum, the plate was washed with 1 mL DI water. Once the water passed through, analyte elution was done by loading 1 mL 2% formic acid in methanol, followed by drying with N2 gas heated to 40 °C. Once dried, they were resuspended with 100 µL reconstitution solution (22% acetonitrile, 22% methanol, 56% DI water, 0.5 mM ammonium acetate, and 0.2% formic acid). The chromatographic method utilized a gradient elution with mobile phase A (MPA; 15% acetonitrile, 15% methanol, 70% DI water, 0.5 mM ammonium acetate, and 0.2% formic acid) and mobile phase B (MPB; 45% acetonitrile, 45% methanol, 10% DI water, 0.5 mM ammonium acetate (09689-100G), and 0.2% formic acid (F0441-32)). The flow rate begins at 0.4 mL/min with 25% MPB, at 2.5 min the flow rate increased to 0.6 mL/min, at 5.5 minutes the %MPB increased to 100%, at 7.01 min the flow rate and %MPB decreased to 0.4 mL/min and 25%, respectively, until the end of the run. This method was run using an ACE Excel SuperC18 (3.0 x 75 mm, 5 µm, 90Å) column (EXL-1211-7503) with a ThermoFisher Scientific Vanquish™ – ThermoFisher Scientific (SCR_025713) TSQ Altis LC-MS/MS system (TSQ02-10002). The analytes and internal standards were evaluated in positive mode with the transitions monitored including M2 488.12->402.125, M2-d8 496.25->402.095, M3 502.2->402.113, M3-d8 510.2->402.113, M4 502.138->416.125, M4-d8 510.188->416.125, M6 518.112->402, M6-d8 526.2->402.113, and TP-0903 516.2->416.125, TP-0903-d8 524.237->416.125. […] Three quality control samples (QC Low, QC Medium, and QC High) were monitored during sample analyses to ensure the accuracy of assay quantitation. Additionally, a validation was performed that included the evaluation of selectivity, matrix effects, sensitivity, carry-over, freeze-thaw stability, processed sample stability, recovery, and dilution integrity (20X and 10X). Intra- and inter- day accuracy and precision of the calibrators and quality control samples, which also included the LLOQ for each analyte, was evaluated over 3 days. The quality control samples concentrations were continually monitored by statistical analysis of runs using Westgard rules (13s, 22s, R4s, and 10x) and adherence to FDA guidance of being within 15% except at the LLOQ of being within 20%. […]

[2] = system: p-H2AX; assay: p-H2AX in peripheral blood by spectral flow cytometry; format: in vivo, human; details: cycle 1, CR (n = 2), CRh/CRi/MLFS (n = 8), SD, treatment failure or early death (n = 7)
Experimental: In brief, Ficoll-enriched peripheral blood mononuclear cells were stained for external markers, fixed, permeabilized, and then stained for p-H2AX (Thermo Fisher Scientific; AB_2896984). Sample analysis was performed in the Ohio State University Comprehensive Cancer Center Flow Cytometry Shared Resource and Immune Monitoring & Discovery Platform using the Cytek Aurora. Data were analyzed using FCS Express version 7 (De Novo Software).
Based on the observation that TP-0903 upregulates p-H2AX, a marker of DNA damage, in TP53-mutated cell lines ([24]), we hypothesized that p-H2AX could serve as a clinical biomarker for TP-0903 activity. Analysis of peripheral blood from days 1 and 10 of cycle 1 was performed by spectral flow cytometry. The mean fluorescence intensity was measured for p-H2AX, and then values at day 10 were normalized using baseline values collected on day 1 (Supplementary Fig. S4).

[3] = TP-0903 dose 25mg, Day 10 of course 1, plasma
[4] = TP-0903 dose 37 mg, Day 10 of course 1, plasma
[5] = 25 mg, TP-0903 dose 25mg, Day 1 of course 1, plasma
[6] = 25 mg, TP-0903 dose 25mg, Day 10 of course 1, plasma
[7] = 37 mg, TP-0903 dose 37 mg, Day 1 of course 1, plasma
[8] = 37 mg, TP-0903 dose 37 mg, Day 10 of course 1, plasma

Question: Which results are given for CN1CCN(Cc2ccc(Nc3ncc(Cl)c(Nc4ccccc4S(=O)(=O)N(C)C)n3)cc2)CC1.O=C(O)C(O)C(O)C(=O)O.O=C(O)C(O)C(O)C(=O)O [TP-0903, 2-(5-chloro-2-(4-((4-methylpiperazin-1-yl)methyl)phenylamino)pyrimidin-4-yl)amino-N,N-dimethylbenzene-1-sulfonamide di-tartrate salt]?
Answer: Steady-state TP-0903 plasma exposure (Css Min on Day 10), responders vs non-responders ([1]; Supplementary Fig. S3A): no significant difference; Decrease in absolute neutrophil count or platelets in patients with steady-state plasma exposure above the median ([1]; Supplementary Fig. S3B, S3C): did not have a greater decrease; Pre-treatment trough [1, 3]: 7.1 (3.3-17) ng/mL; Pre-treatment trough [1, 4]: 5.3 (1.0-21) ng/mL; Drug accumulation ratio ([1]; based on the median AUC, day 10 vs day 1, both groups): six; Variation in the steady-state Cmax of parent TP-0903 ([1]; both groups (37 mg and 25 mg)): > 25 fold; Cmax [1, 5]: 2.4 ng/mL; Tmax [1, 5]: 2.8 h; AUC(0-t) ([1]; 25 mg, TP-0903 dose 25mg, Day 1 of course 1, plasma, N=11): 42 ng·h/mL; Cmax [1, 6]: 14 ng/mL; Tmax [1, 6]: 3.5 h; AUC(0-t) ([1]; 25 mg, TP-0903 dose 25mg, Day 10 of course 1, plasma, N=8): 260 ng·h/mL; Cmax [1, 7]: 3.3 ng/mL; Tmax [1, 7]: 2.1 h; AUC(0-t) ([1]; 37 mg, TP-0903 dose 37 mg, Day 1 of course 1, plasma, N=10): 36 ng·h/mL; Cmax [1, 8]: 13 ng/mL; Tmax [1, 8]: 3.9 h; AUC(0-t) ([1]; 37 mg, TP-0903 dose 37 mg, Day 10 of course 1, plasma, N=9): 210 ng·h/mL; concentration at 24 h ([1]; TP-0903 dose 25mg, Day 1 of course 1, plasma): 1.9 ng/mL; concentration at 24 h [1, 3]: 8.1 ng/mL; concentration at 24 h ([1]; TP-0903 dose 37 mg, Day 1 of course 1, plasma): 0.7 ng/mL; concentration at 24 h [1, 4]: 5.8 ng/mL; Change in p-H2AX mean fluorescence intensity, day 10 normalized to day 1 [2]: no significant change
